{"source": "patent US20260191818A1", "about": "(University of South Carolina, priority 2022, published 2026)", "key": {"C26 tumor-bearing mice": {"tested_on": "C26 tumor-bearing mice", "experiment": "C26 tumor-bearing mice given 5FU (cancer and chemotherapy-induced cachexia): body, tumor and tissue weights, food intake", "format": "in vivo, CD2F1 mice", "protocol": "Male (n=20) CD2F1 (CD2F1) hybrid mice were purchased from Charles River Laboratory (Raleigh, NC) at 10 weeks of age. Mice arrived at our facilities and were given AlN76 diet and allowed to acclimate to the new facilities and purified diet for 4 weeks. Mice were kept in ventilated cages (5 per cage), on a 12:12 h light/dark cycle, in a humidity and temperature control room (~22° C.) and given ad libitum access to water and food. Animal handling and experiments were performed to minimize pain and discomfort. […] Control mice were non-tumor-bearing mice given PBS i.p. and propylene glycol p.o. as vehicle controls. Body weights were measured daily. Food weights per cage were measured daily and average food intake was calculated by the difference in food weight between days. […] Hind limb muscles and select organs were excised, weighed, and snap frozen in liquid nitrogen while mice were under sedation (2% Isoflurane, 2 L/min O2). All procedures involving animals were reviewed and approved by the Institutional Animal Care and Usage Committee (IACUC) at the University of South Carolina in accordance with the American Association for Laboratory Animal Science. C26 (colon 26 adenocarcinoma) cells were gifted from Dr. Andrea Bonetto's laboratory and grown in complete DMEM (10% fetal bovine serum, 1% penicillin/streptomycin). Cells were split at 70% confluency and passage 3 was used for cell implantation. On Day 0, CD2F1 mice were given a subcutaneous injection of 1×10^6 C26 cells in the subscapular area as previously described. See, Bonetto, A., et al., The Colon-26 Carcinoma Tumor-bearing Mouse as a Model for the Study of Cancer Cachexia. J Vis Exp, 2016(117). Tumors were palpable at Day 8 in all C26 tumor-bearing mice. […] VWR; CAS #:51-21-8) was solubilized in warmed phosphate buffered saline (PBS) at 3.0 mg/mL, sterile filtered with a 0.2 μm filter and administered at the beginning of the light cycle (0700) via i.p. injection to mice with established tumor (day 11 after C26 implantation). […] Cancer Biol Ther, 2022. 23(1): p. 1-15; and […]., et al., The Acute Effects of 5 Fluorouracil on Skeletal Muscle Resident and Infiltrating Immune Cells in Mice. […] Data were analyzed using Prism 8 statistical software (GraphPad Software, CA, USA). […] The healthy controls are shown as a reference point but were not included in statistical analysis. Additionally, the C26 alone group was not included in analysis, but is shown as a reference point for tumor growth without chemotherapy intervention. Data are presented as the mean±SEM and the level of significance was set up at p<0.05."}, "[1]": {"tested_on": "ApcMin/+ model of intestinal cancer", "conditions": "25 mg/kg of quercetin; cited from earlier work"}, "PPARG, PPARGCA1": {"tested_on": "PPARG, PPARGCA1", "experiment": "RT-PCR of rectus femoris, mitochondrial biogenesis genes", "format": "in vivo, CD2F1 mice", "conditions": "C26+5FU+Quer vs C26+5FU", "method": "RNA from the proximal portion of the RF was isolated as previously described. […] Briefly, RNA was extracted from the RF using the […] procedure (Life Technologies, Gibco-BRL, Carlsbad, CA). RNA sample quality and quantities were verified using a Nanodrop One Microvolume UV-Vis Spectrophotometer (Thermo Fisher Scientific, Waltham, MA). […] Quantitative RT-PCR analysis was carried out as per the manufacturer's instructions (Applied Biosystems) using Taq-Man Gene Expression Assays."}, "C26 model of cachexia": {"tested_on": "C26 model of cachexia", "conditions": "Quercetin 35 mg/kg; cited from earlier work"}, "P62, LC3B, Parkin, BNIP3": {"tested_on": "P62, LC3B, Parkin, BNIP3", "experiment": "Western blot of rectus femoris, autophagy and mitophagy proteins", "format": "in vivo, CD2F1 mice", "conditions": "C26+5FU+Quer vs C26+5FU", "protocol": "Protein isolation and western blotting was completed similar to what has been previously described. See, Sougiannis, A. T., et al., Impact of weight loss and partial weight regain on immune cell and inflammatory markers in adipose tissue in male mice. J Appl Physiol (1985), 2020. 129(4): p. 909-919. The rectus femoris (RF) was teased from the other quadriceps muscles, cut in half (proximal/distal), snap frozen in liquid nitrogen, and stored at −80° C. The distal RF was homogenized in Mueller Buffer (50 mM Hepes, 0.1% Triton-x, 4 mM EGTA, 10 mM EDTA, 15 mM Na4P207, 100 mM β-glycerophosphate, 25 mM NaF, and 5 mM NaVO4, with protease inhibitor cocktail) using a bead homogenizer at 4° C. Samples were centrifuged and the supernatant was collected and diluted with a diluent buffer (50% Glycerol, 50 mM Na4P2O7, 2.5 mM EGTA, and 1 mM β-mercaptoethanol with protease inhibitor cocktail). […] Between 10-50 μg of muscle protein homogenate was separated via SDS-PAGE and transferred to a PVDF membrane. Membranes were stained with Ponceau Red to confirm even loading and transfer efficiency. Membranes were then washed with tris buffered saline with 0.1% Tween (TBST) before blocking for 1 h at room temp with 5% milk TBST. Membranes were then incubated in primary anti-body (Table 1, see FIG. 8) overnight at 4° C. under gentle agitation. Membranes were then washed 3×5 min and incubated with the appropriate (anti-mouse or rabbit) HRP-linked secondary in 5% milk TBST for 1 h at room temperature. After a final 3×5 min wash membranes were incubated in chemiluminescent HRP substrate before visualization with a Syngene G:box. Images were then scanned, and relative protein expression was determined with ImageJ. Investigator was blinded to sample loading scheme and images were cropped after analysis for representation. All samples (full Ns) were run together for each protein. Dotted lines indicate where gels were cropped."}, "[2]": {"tested_on": "tibialis anterior (TA) muscle", "experiment": "Muscle histology (H&E), myofibrillar cross sectional area of tibialis anterior", "format": "in vivo, CD2F1 mice", "conditions": "C26+5FU+Quer vs C26+5FU", "protocol": "Skeletal muscle histology was assessed via hematoxylin and eosin (H&E) staining on tibialis anterior (TA) muscle cryosections. The TA muscle was dissected, snap-frozen in liquid nitrogen with Optimum Cutting Temperature (OCT) embedding medium placed on the most distal portion of the TA and stored in −80° C. Tissue was acclimated to the cryostat temperature (−24° C.) prior to collection of transverse sections ([…]) on Fisherbrand Superfrost Plus Microscope Slides. TA tissue slides were then stored at −80° C. until staining. Slides were fixed in ice-cold acetone and H&E staining was completed as previously described. […] Cancer Biol Ther, 2022. 23(1); and VanderVeen, B. N., et al., 5-Fluorouracil disrupts skeletal muscle immune cells and impairs skeletal muscle repair and remodeling. J Appl Physiol (1985), 2022. 133(4): p. 834-849. Images of H&E stains were taken at 20× and 40× magnification using a Keyence BZX800 microscope. Muscle cross sectional area (mCSA) was measured using ImageJ by measuring the circumference of 500-700 myofibers/mouse (n=3-5/group)."}}}
{"smiles": "O=c1c(O)c(-c2ccc(O)c(O)c2)oc2cc(O)cc(O)c12", "note": "[quercetin, 3,4,5,7-pentahydroxylflavone]", "values": [{"measurement": "greater EDL weight", "setting": "C26 tumor-bearing mice; C26+5FU+Quer vs C26+5FU, p=0.039", "result": 23.7, "unit": "%"}, {"measurement": "greater gonadal fat pad weight", "setting": "C26 tumor-bearing mice; C26+5FU+Quer vs C26+5FU, p=0.04", "result": 50.0, "unit": "%"}, {"measurement": "greater gastrocnemius weight", "setting": "C26 tumor-bearing mice; C26+5FU+Quer vs C26+5FU, p=0.055", "result": 13.9, "unit": "%"}, {"measurement": "other measured muscle weights", "setting": "C26 tumor-bearing mice; C26+5FU+Quer vs C26+5FU, p=0.09-0.15", "result": "did not achieve statistically significant differences"}, {"measurement": "greater RF (rectus femoris) weight", "setting": "C26 tumor-bearing mice; C26+5FU+Quer vs C26+5FU, quercetin 50 mg/kg p.o., p=0.02", "result": 14.4, "unit": "%"}, {"measurement": "impact on body weight loss", "setting": "C26 tumor-bearing mice; mice given 5FU 30 mg/kg lean mass i.p., quercetin 50 mg/kg p.o. vs propylene glycol, daily from Day 11", "result": "no apparent impact"}, {"measurement": "muscle mass and strength", "setting": "[1]", "result": "preserved muscle mass and strength"}, {"measurement": "change in gene expression of PPARG", "setting": "PPARG, PPARGCA1; p=0.04", "result": "−64.0", "unit": "%"}, {"measurement": "change in PPARGCA1 gene expression", "setting": "PPARG, PPARGCA1; without changes, p=0.36", "result": 10.3, "unit": "%"}, {"measurement": "muscle mass loss", "setting": "C26 model of cachexia", "result": "protected against muscle mass loss"}, {"measurement": "change in LC3b expression", "setting": "P62, LC3B, Parkin, BNIP3; no observed difference, p=0.2", "result": "−33.4", "unit": "%"}, {"measurement": "change in P62 expression", "setting": "P62, LC3B, Parkin, BNIP3; no observed difference, p=0.20", "result": "−33.4", "unit": "%"}, {"measurement": "change in BNIP3 expression", "setting": "P62, LC3B, Parkin, BNIP3; significant increase, p=0.024", "result": 555, "unit": "%"}, {"measurement": "myofibrillar fiber size distribution", "setting": "[2]", "result": "rightward shift"}, {"measurement": "increase in TA mean CSA", "setting": "[2]; H&E", "result": 32.0, "unit": "%"}]}
